Assay results as given in US20040147562A1, “Methods of treating conditions associated with an EDG-1 receptor” (priority 2002, published 2004).

What was measured:
[1] = tested on: human umbilical vein endothelial cells; assay: S1P induced calcium response in human umbilical vein endothelial cells; format: cell-based; conditions: HUVEC; FIG. 4, 5
[2] = tested on: mouse splenic CD4 T cells; assay: Lymphocyte migration in mouse dorsal air-pouch model; format: in vivo; conditions: lavage after 24 hours, FIG. 15
Experimental: To test migration of mouse T cells in vivo, the ability of exodus-2 to attract mouse lymphocytes was assessed in the mouse dorsal air-pouch model. In these experiments, 0.5 ml 1 μM exodus-2 was introduced into a dorsal air-pouch produced by injecting 5 ml of filtered air subcutaneously. Mouse splenic CD4 T cells were fluorescently labeled with FM-DiI (Molecular Probes, Inc., Eugene, Oreg.), then treated with S1P (1 μM), 102, or 104. The treated CD4T cells were introduced into the peritoneal cavity. After 24 hours, lavage (1 ml) from the dorsal air pouch was assayed for fluorescence.

mouse T cells = assay: Mouse T cell migration in Transwell chambers with matrigel; format: cell-based; conditions: in the presence of S1P; FIG. 14
Experimental: To further elucidate the role of the Edg-1 receptor in lymphocyte trafficking, migration of mouse T cells was analyzed in both in vitro and in vivo models. Migration of mouse T cells was first tested in Transwell chambers (Costar, Cambridge, Mass.) with polycarbonate fibers having a pore width of 8 μm, separated by a layer of matrigel. Stimulants S1P or exodus-2 were separately added to the bottom chamber. The effects of exodus-2 were tested alone, with S1P, and with S1P and Edg-1 antagonists 101 and 102.

[3] = tested on: human umbilical vein endothelial cells; assay: Trans-matrigel chemotaxis / invasion assay with HUVECs (modified Boyden chamber); format: cell-based
Experimental: In addition to Edg-1, other Edg receptors are also implicated in S1P stimulated chemotaxis, including Edg-3 and Edg-6. To assess the relative roles of the Edg-1 receptors and Edg-3 receptors in S1P stimulated chemotaxis, the ability of S1P to evoke trans-matrigel chemotaxis was tested in the presence of the Edg-1 antagonist 101, the Edg-3 antagonist 301, and the combination of 101 and 301. These experiments were performed according to the migration and invasion assay protocols described in Section 7.12, below. The Edg-3 antagonist 301, 3-Methyl-2-phenyl-quinoline-4-carboxylic acid 4-fluoro-benzylamide, is extensively described in co-pending U.S. application Ser. No. 10/390,426, which is incorporated by reference in its entirety. 301 is identified as compound 101 in U.S. application Ser. No. 10/390,426. Further, 301 is commercially available from Specs (The Netherlands) as compound number AK-968/12971392.
(§1) S1P is a strong chemoattractant to human PBMCs. […] Several migration assays were performed to test this hypothesis and to determine the effect of Edg-1 agonists and antagonists on S1P mediated chemotaxis. The migration assays were performed according to the protocol described in Section 7.12, below. The results of theses assays are presented in FIG. 6, FIG. 7, FIG. 8, FIG. 9 and FIG. 13.
(§2) Cells were plated in a 24 well format using Fluoroblok filter insert plates ([…] pore size) or Fluoroblok matrigel coated filter insert plates (Becton Dickinson, San Diego, Calif.). The assay was a modified Boyden Chamber assay in which a cell suspension (1×10^5 cells/ml) was prepared in serum free medium and added to the top chamber. LPA or S1P (doses ranged from 0.1-10 μM in serum free medium) was added to the bottom chamber. Following a 20-24 hour incubation period, the number of cells migrating or invading into the lower chamber was quantitated by transferring the filter insert into a fresh 24-well plate containing 4 μg/ml calcein AM (Molecular Probes, Sunnyvale, Calif.) in Hank's Balanced Salt Solution and staining for one hour.
(§3) Detection was via fluorescent readout at 450 nm excitation/530 nm emission using a fluorimeter. The level of fluorescence correlated with cell number.

human Edg-1 receptors [4] = molecular target: T1, human Edg-1 receptors (Homo sapiens, UniProt P21453); assay: Intracellular calcium (FLIPR) assay, HTC cells expressing Edg-1; format: cell-based; set-up: Edg 1 IC50 μM; fused on or other part: in the chimera reading: the third intracellular loop (i3) of Edg-3 (S1PR3) in place of Edg-1's own
T1 sequence (P21453 whole entry, the tested form may be a part): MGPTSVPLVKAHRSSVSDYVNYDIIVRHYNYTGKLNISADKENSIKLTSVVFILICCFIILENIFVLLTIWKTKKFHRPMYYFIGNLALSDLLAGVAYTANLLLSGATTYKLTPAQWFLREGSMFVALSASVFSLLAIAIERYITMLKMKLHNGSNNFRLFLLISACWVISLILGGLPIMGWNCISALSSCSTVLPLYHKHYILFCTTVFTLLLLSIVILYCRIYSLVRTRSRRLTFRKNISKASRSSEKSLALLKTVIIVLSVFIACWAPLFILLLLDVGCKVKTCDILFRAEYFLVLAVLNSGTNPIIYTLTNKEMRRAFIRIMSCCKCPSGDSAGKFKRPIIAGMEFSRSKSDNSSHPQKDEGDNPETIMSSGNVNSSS
Experimental: (§4) The compounds were tested in HTC cells expressing human Edg-1 receptors. […] The compounds were tested in this recombinant system first, and subsequently tested in cell lines expressing Edg-1 (in addition to other Edg receptors).
(§5) […] receptors such as Edg-1, couple to calcium effector pathways, and result in increases in intracellular calcium following receptor activation (An, 1998, J. Cell Biochem. Supp 30-31:147-157). This biological response lends itself to a very efficient, high-throughput screen using a Fluorescence Imaging Plate Reader (FLIPR; Molecular Devices, Sunnyvale, Calif.). The FLIPR system is a real-time, cell-based assay system with continuous fluorescence detection using a cooled CCD camera. The FLIPR system was used to develop an Edg-1 receptor screen. Rat hepatoma cells stably expressing Edg-1/3i3 chimera or Edg-1 and Gqi were plated on 384-well plates and loaded with a calcium dye loading kit (Molecular Devices, Sunnyvale, Calif.) for 1 hour at room temperature. Cells were then placed on the FLIPR^384 (Molecular Devices, Sunnyvale, Calif.) and excited by an argon laser at 488 nm. The data for the entire 384-well plate was updated every second. An integrated robotic pipettor allowed for simultaneous compound addition into each individual well in the plate.

human Edg-1 receptors [5] = molecular target: T1, human Edg-1 receptors; assay: as above; format: cell-based; set-up: expressed in transfected cells; host or cells: HTC rat hepatoma cells; conditions: agonist; Edg 1/Gqi
Experimental: as §4, §5

Null/Gqi = assay: Intracellular calcium (FLIPR) assay, Null/Gqi control cells; format: cell-based; conditions: Rattus norvegicus; agonist
[6] = tested on: human peripheral blood mononuclear cells; assay: Migration of human peripheral blood mononuclear cells; format: cell-based; conditions: chemoattractant; FIG. 9, 13
Experimental: as §1, §2, §3
Human PBMCs are isolated from the buffy coats of healthy donors from the Stanford Blood Center. […]

| melting point | inhibition of Edg-1 receptors (human Edg-1 receptors [4]; FIG. 1-3) | IC50 (human Edg-1 receptors [4]; Table 2, inhibition of S1P response, read-out: Edg 1 IC50) | EC50 (human Edg-1 receptors [5]) | EC50 (Null/Gqi) | Structure (SMILES) | inhibition of S1P induced calcium responses [1] | reversal of S1P-mediated desensitization in dorsal air-pouch ([2]; co-treatment with S1P) | effect on exodus-2-stimulated T cell migration (mouse T cells) | inhibition of S1P-induced matrigel invasion ([3]; HUVEC, 10 μM (FIG. 6)) | migration of treated lymphocytes to exodus-2 in dorsal air-pouch ([2]; CD4 T cells treated ex vivo, given intraperitoneally, S1P 1 μM) | migration of human peripheral blood mononuclear cells [6] | potency of invasion stimulation relative to S1P ([3]; HUVEC, FIG. 7) | stimulation of invasion of Human Umbilical Vein Endothelial cells ([3]; concentrations between 0.5-100 μM, FIG. 7) |
| --- | --- | --- | --- | --- | --- | --- | --- | --- | --- | --- | --- | --- | --- |
| 150 to 152 °C | specifically inhibited | 1.69 µM | – | – | O=C(c1cccnc1)N1N=C(c2ccc(Br)cc2)CC1(O)C(F)(F)F (stereo not shown) [Compound 102] | inhibits S1P induced calcium responses in a dose-dependent manner | can be reversed | enhance exodus-2-stimulated migration | inhibits S1P-induced matrigel invasion | – | – | – | – |
| – | – | – | 10 µM | > 25 µM | COc1cc(C(=O)c2cc(Cl)ccc2N)cc(OC)c1OC [Compound 104, (2-Amino-5-chlorophenyl)-(3,4,5-trimethoxyphenyl)methanone] | – | – | – | – | desensitizes the lymphocytes to attraction by exodus-2 | stimulates migration of human peripheral blood mononuclear cells at micromolar concentrations | significantly less potent that S1P | stimulates invasion |
